Data taken from ChEMBL document CHEMBL3525998, “Metabolism of saikosaponin a in rats: diverse oxidations on the aglycone moiety in liver and intestine in addition to hydrolysis of glycosidic bonds” (Drug Metab Dispos, 2013).

Key:
Type in all cases: ADME, organism-based
[1] = Drug excretion in Sprague-Dawley rat urine treated with saikosaponin a at 50 mg/kg, po administered through gavage by LC-DAD-IT-TOF-MS analysis; design: dose 50 mg/kg, route oral; settings: in vivo
Rattus norvegicus = species: Rattus norvegicus; experiment: Drug level in Sprague-Dawley rat assessed as retention time treated with saikosaponin a by LC-DAD-IT-TOF-MS analysis
[2] = Drug excretion in Sprague-Dawley rat feces treated with saikosaponin a at 50 mg/kg, po administered through gavage by LC-DAD-IT-TOF-MS analysis; design: dose 50 mg/kg, route oral; settings: in vivo
[3] = Drug recovery in po dosed rat excreted feces measured over 0 to 24 hrs after drug administration by HPLC analysis relative to starting drug dose; settings: faeces, read-out: Drug recovery
[4] = Drug excretion in Sprague-Dawley rat feces treated with saikosaponin a at 15 mg/kg, iv by LC-DAD-IT-TOF-MS analysis; design: dose 15 mg/kg, route intravenous; settings: in vivo
[5] = Drug excretion in Sprague-Dawley rat bile treated with saikosaponin a at 15 mg/kg, iv by LC-DAD-IT-TOF-MS analysis; design: dose 15 mg/kg, route intravenous; settings: in vivo
Plasma [6] = experiment: Drug level in Sprague-Dawley rat plasma treated with saikosaponin a at 50 mg/kg, po administered through gavage by LC-DAD-IT-TOF-MS analysis; design: dose 50 mg/kg, route oral; settings: in vivo
Plasma [7] = experiment: Drug level in Sprague-Dawley rat plasma treated with saikosaponin a at 15 mg/kg, iv by LC-DAD-IT-TOF-MS analysis; design: dose 15 mg/kg, route intravenous; settings: in vivo
[8] = Drug excretion in Sprague-Dawley rat urine treated with saikosaponin a at 15 mg/kg, iv by LC-DAD-IT-TOF-MS analysis; design: dose 15 mg/kg, route intravenous; settings: in vivo
[9] = Drug excretion in Sprague-Dawley rat bile treated with saikosaponin a at 50 mg/kg, po administered through gavage by LC-DAD-IT-TOF-MS analysis; design: dose 50 mg/kg, route oral; settings: in vivo

Structure (SMILES) | Drug excretion [1] | Retention_time (Rattus norvegicus) [min] | Drug excretion [2] | dose excreted [3] [%] | Drug excretion [4] | Drug excretion [5] | Drug metabolism (Plasma [6]) | Drug metabolism (Plasma [7]) | Drug excretion [8] | Drug excretion [9]
CC1(C)CC[C@]23CO[C@@]4(C=C[C@@H]5[C@@]6(C)C=C[C@H](O)[C@@](C)(CO)[C@@H]6CC[C@@]5(C)[C@]4(C)C[C@@H]2O)[C@@H]3C1 | metabolite_detected | 53.7 | metabolite_detected | – | – | – | – | – | – | –
CC1(C)CC[C@]23CO[C@@]4(C=C[C@@H]5[C@@]6(C)CCC(=O)[C@@](C)(CO)[C@@H]6CC[C@@]5(C)[C@]4(C)C[C@@H]2O)[C@@H]3C1 | metabolite_detected | 52.3 | metabolite_detected | – | – | – | – | – | – | –
CC1(C)CC[C@]23CO[C@@]4(C=C[C@@H]5[C@@]6(C)CC[C@H](O)[C@@](C)(CO)[C@@H]6CC[C@@]5(C)[C@]4(C)C[C@@H]2O)[C@@H]3C1 | metabolite_detected | 48.3 | metabolite_detected | > 50 | metabolite_detected | – | – | – | – | –
C[C@H]1O[C@@H](O[C@H]2CC[C@@]3(C)[C@@H](CC[C@]4(C)[C@@H]3CC=C3[C@@H]5CC(C)(C)CC[C@]5(CO)[C@@H](O)C[C@]34C)[C@]2(C)CO)[C@H](O)[C@@H](O[C@@H]2O[C@H](CO)[C@@H](O)[C@H](O)[C@H]2O)[C@H]1O | – | 22.9 | – | – | – | metabolite_detected | – | – | – | –
CC1(C)CC[C@]23CO[C@@]4(C=C[C@@H]5[C@@]6(C)CC[C@H](O)[C@@](C)(CO)[C@@H]6CC[C@@]5(C)[C@]4(C(=O)O)C[C@@H]2O)[C@@H]3C1 | metabolite_detected | 18.4 | metabolite_detected | – | metabolite_detected | – | – | – | – | –
C[C@H]1O[C@@H](O[C@H]2CC[C@@]3(C)[C@@H](CC[C@]4(C)[C@@H]3C=C[C@]35OC[C@@]6(CCC(C)(C)C[C@H]63)[C@@H](O)C[C@]54C)[C@]2(C)CO)[C@H](O)[C@@H](O)[C@H]1O | metabolite_detected | 45.5 | metabolite_detected | > 50 | metabolite_detected | metabolite_detected | metabolite_detected | metabolite_detected | metabolite_detected | metabolite_detected
